# Measurements: paper PMC6409085, “Three odorant-binding proteins are involved in the behavioral response of Sogatella furcifera to rice plant volatiles” (PeerJ, 2019)
# Where “and” joins values, the source holds several entries; their conditions need not be identical. Equal entries are not always repeated.
# Assays:
# [1] = system: S. furcifera adults; test: Y-tube olfactometer behavioral trials; format: in vivo, Sogatella furcifera; details: odorant 50 µL/L vs hexane
# Experimental: To test the effect of the rice odorants on the behavior of S. furcifera adults, a glass Y-tube olfactometer (inner diameter 2.0 cm, stem 13 cm, arms 10 cm, angle of arms 60°) according to the previously described ([Wang et al., 2014b]) was employed. An airtight cubic box (70 by 45 by 30 cm) was used to position Y-tube, and the Y-tube was lighted by a 30-W filament lamp 25 cm above it. Air that filtered through activated charcoal and humidified with doubly distilled water was pumped in both arms at a flow rate of 300 mL/min. Two filter paper strips (10 by 1 cm) containing 100 µL odorant source (50 µL/L) and 100 µL control hexane were placed in two holding chambers in the front of the olfactometer, respectively. A S. furcifera adult (2 days after emergence, starved for 0.5 h) was randomly chosen and placed in the stem of the Y-tube. Each insect was given 10 min to choose between the two arms of the Y-tube, the choice was noted if the planthopper reached one-half of the arms’ lengths and stayed in the arm for more than 1 min. Besides, S. furcifera was considered as having no orientation preference. Forty-five individuals were used for each compound, each insect used only once. And the dual-choice experiment was done in an environmentally controlled room (25 ± 1 °C and 50% RH). A Chi-squared test was used to analyze the behavioral assay data by using SPSS19.0 (SPSS Inc., Chicago, IL, USA) software.
# [2] = target: SfurOBP1 (Sogatella furcifera, UniProt V5T8N5); test: biochemical; format: binding; details: for Fluorescence competitive binding assay, fluorescence intensity: OBP1, three replicate columns
# Chain of SfurOBP1 (V5T8N5 entry or part of it): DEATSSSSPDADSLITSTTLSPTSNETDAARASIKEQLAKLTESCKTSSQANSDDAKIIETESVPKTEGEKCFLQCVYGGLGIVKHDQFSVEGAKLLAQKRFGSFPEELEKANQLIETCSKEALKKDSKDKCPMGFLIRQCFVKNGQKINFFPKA
# Procedure, shortened: (§1)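 First, 2.0 µM protein in 50 mM Tris-HCl (pH 7.4) was titrated with 1-NPN to obtain K1-NPN. Then odorants (2–20 µM final) competed against 2.0 µM 1-NPN, with fluorescence (ex 337 nm) recorded after 2 min. Ki was computed from IC50 via Ki = IC50/(1 + [1-NPN]/K1-NPN).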
# [3] = target: SfurOBP3 (Sogatella furcifera, UniProt V5T818); test: biochemical; format: binding; details: for Fluorescence competitive binding assay, fluorescence intensity: OBP3, three replicate columns
# Chain of SfurOBP3 (V5T818 entry or part of it): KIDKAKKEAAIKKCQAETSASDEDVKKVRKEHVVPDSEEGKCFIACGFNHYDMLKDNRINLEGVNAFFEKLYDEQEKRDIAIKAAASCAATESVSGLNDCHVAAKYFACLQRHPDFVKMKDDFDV
# Procedure, shortened: as §1
# [4] = target: SfurOBP2 (Sogatella furcifera, UniProt V5T759); test: biochemical; format: binding
# Chain of SfurOBP2 (V5T759 entry or part of it): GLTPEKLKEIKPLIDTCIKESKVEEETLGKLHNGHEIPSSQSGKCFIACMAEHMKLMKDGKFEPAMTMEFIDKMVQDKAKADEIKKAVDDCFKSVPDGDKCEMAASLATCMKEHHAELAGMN
# Procedure, shortened: as §1
# [5] = target: SfurOBP11 (Sogatella furcifera, UniProt V5T6E3); test: biochemical; format: binding
# Chain of SfurOBP11 (V5T6E3 entry or part of it): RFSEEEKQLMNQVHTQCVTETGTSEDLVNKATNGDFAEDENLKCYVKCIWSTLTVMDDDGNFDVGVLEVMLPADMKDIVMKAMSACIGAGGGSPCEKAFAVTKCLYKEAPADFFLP
# Procedure, shortened: as §1
compound,measurement,setting,value
CCCCCCCC [n-octane],behavioral response of S. furcifera (in words),[1],significantly repelled
same,number of insects choosing hexane arm,[1]; adults,19
same,number of insects choosing volatilies arm,[1]; adults,10
same,number of insects failed (no choice),[1]; adults,11
same,"Fluorescence competitive binding assay, fluorescence intensity",[2]; ligand concentration 2 (μM),5925 and 7991 and 7456
same,"Fluorescence competitive binding assay, fluorescence intensity",[2]; ligand concentration 4 (μM),8340 and 7163 and 7902
same,"Fluorescence competitive binding assay, fluorescence intensity",[2]; ligand concentration 6 (μM),8616 and 7456 and 8995
same,"Fluorescence competitive binding assay, fluorescence intensity",[2]; ligand concentration 8 (μM),8020 and 7176 and 8029
same,"Fluorescence competitive binding assay, fluorescence intensity",[2]; ligand concentration 10 (μM),7070 and 8613 and 8224
same,"Fluorescence competitive binding assay, fluorescence intensity",[2]; ligand concentration 12 (μM),6680 and 8217 and 6786
same,"Fluorescence competitive binding assay, fluorescence intensity",[2]; ligand concentration 14 (μM),7048 and 6801 and 7552
same,"Fluorescence competitive binding assay, fluorescence intensity",[2]; ligand concentration 16 (μM),6817 and 7163 and 7002
same,"Fluorescence competitive binding assay, fluorescence intensity",[2]; ligand concentration 18 (μM),8094 and 8514 and 8878
same,"Fluorescence competitive binding assay, fluorescence intensity",[2]; ligand concentration 20 (μM),7869 and 7702 and 8440
same,IC50,"[2]; SfurOBP1, protein and 1-NPN both 2.0 µM, competitor 2-20 µM, read-out: IC50",> 20 µM
same,"Fluorescence competitive binding assay, fluorescence intensity",[3]; ligand concentration 2,68170 and 67677 and 64610
same,"Fluorescence competitive binding assay, fluorescence intensity",[3]; ligand concentration 4,67293 and 62720 and 65655
same,"Fluorescence competitive binding assay, fluorescence intensity",[3]; ligand concentration 6,76553 and 64631 and 57162
same,"Fluorescence competitive binding assay, fluorescence intensity",[3]; ligand concentration 8,71829 and 61798 and 56284
same,"Fluorescence competitive binding assay, fluorescence intensity",[3]; ligand concentration 10,59554 and 55292 and 53530
same,"Fluorescence competitive binding assay, fluorescence intensity",[3]; ligand concentration 12,55099 and 48687 and 52349
same,"Fluorescence competitive binding assay, fluorescence intensity",[3]; ligand concentration 14,54529 and 46904 and 51749
same,"Fluorescence competitive binding assay, fluorescence intensity",[3]; ligand concentration 16,48833 and 47113 and 45049
same,"Fluorescence competitive binding assay, fluorescence intensity",[3]; ligand concentration 18,45841 and 47813 and 46502
same,"Fluorescence competitive binding assay, fluorescence intensity",[3]; ligand concentration 20,46899 and 47179 and 42858
same,IC50,"[3]; SfurOBP3, protein and 1-NPN both 2.0 µM, competitor 2-20 µM, read-out: IC50",> 20 µM
same,IC50,"[4]; SfurOBP2, protein and 1-NPN both 2.0 µM, competitor 2-20 µM, read-out: IC50",19.9 µM
same,"Fluorescence competitive binding assay, OBP2 (raw fluorescence reading)","[4]; ligand concentration 2 (unit not given), replicate column 1 of 3",18817
same,"Fluorescence competitive binding assay, OBP2 (raw fluorescence reading)","[4]; ligand concentration 2 (unit not given), replicate column 2 of 3",16925
same,"Fluorescence competitive binding assay, OBP2 (raw fluorescence reading)","[4]; ligand concentration 2 (unit not given), replicate column 3 of 3",16813
same,"Fluorescence competitive binding assay, OBP2 (raw fluorescence reading)","[4]; ligand concentration 4 (unit not given), replicate column 1 of 3",17604
same,"Fluorescence competitive binding assay, OBP2 (raw fluorescence reading)","[4]; ligand concentration 4 (unit not given), replicate column 2 of 3",17269
same,"Fluorescence competitive binding assay, OBP2 (raw fluorescence reading)","[4]; ligand concentration 4 (unit not given), replicate column 3 of 3",15635
same,"Fluorescence competitive binding assay, OBP2 (raw fluorescence reading)","[4]; ligand concentration 6 (unit not given), replicate column 1 of 3",16307
same,"Fluorescence competitive binding assay, OBP2 (raw fluorescence reading)","[4]; ligand concentration 6 (unit not given), replicate column 2 of 3",16391
same,"Fluorescence competitive binding assay, OBP2 (raw fluorescence reading)","[4]; ligand concentration 6 (unit not given), replicate column 3 of 3",15566
same,"Fluorescence competitive binding assay, OBP2 (raw fluorescence reading)","[4]; ligand concentration 8 (unit not given), replicate column 1 of 3",15494
same,"Fluorescence competitive binding assay, OBP2 (raw fluorescence reading)","[4]; ligand concentration 8 (unit not given), replicate column 2 of 3",15122
same,"Fluorescence competitive binding assay, OBP2 (raw fluorescence reading)","[4]; ligand concentration 8 (unit not given), replicate column 3 of 3",16014
same,"Fluorescence competitive binding assay, OBP2 (raw fluorescence reading)","[4]; ligand concentration 10 (unit not given), replicate column 1 of 3",15063
same,"Fluorescence competitive binding assay, OBP2 (raw fluorescence reading)","[4]; ligand concentration 10 (unit not given), replicate column 2 of 3",14978
same,"Fluorescence competitive binding assay, OBP2 (raw fluorescence reading)","[4]; ligand concentration 10 (unit not given), replicate column 3 of 3",15010
same,"Fluorescence competitive binding assay, OBP2 (raw fluorescence reading)","[4]; ligand concentration 12 (unit not given), replicate column 1 of 3",12606
same,"Fluorescence competitive binding assay, OBP2 (raw fluorescence reading)","[4]; ligand concentration 12 (unit not given), replicate column 2 of 3",12327
same,"Fluorescence competitive binding assay, OBP2 (raw fluorescence reading)","[4]; ligand concentration 12 (unit not given), replicate column 3 of 3",12885
same,"Fluorescence competitive binding assay, OBP2 (raw fluorescence reading)","[4]; ligand concentration 14 (unit not given), replicate column 1 of 3",12907
same,"Fluorescence competitive binding assay, OBP2 (raw fluorescence reading)","[4]; ligand concentration 14 (unit not given), replicate column 2 of 3",11889
same,"Fluorescence competitive binding assay, OBP2 (raw fluorescence reading)","[4]; ligand concentration 14 (unit not given), replicate column 3 of 3",12746
same,"Fluorescence competitive binding assay, OBP2 (raw fluorescence reading)","[4]; ligand concentration 16 (unit not given), replicate column 1 of 3",11757
same,"Fluorescence competitive binding assay, OBP2 (raw fluorescence reading)","[4]; ligand concentration 16 (unit not given), replicate column 2 of 3",11955
same,"Fluorescence competitive binding assay, OBP2 (raw fluorescence reading)","[4]; ligand concentration 16 (unit not given), replicate column 3 of 3",11106
same,"Fluorescence competitive binding assay, OBP2 (raw fluorescence reading)","[4]; ligand concentration 18 (unit not given), replicate column 1 of 3",11096
same,"Fluorescence competitive binding assay, OBP2 (raw fluorescence reading)","[4]; ligand concentration 18 (unit not given), replicate column 2 of 3",11451
same,"Fluorescence competitive binding assay, OBP2 (raw fluorescence reading)","[4]; ligand concentration 18 (unit not given), replicate column 3 of 3",11415
same,"Fluorescence competitive binding assay, OBP2 (raw fluorescence reading)","[4]; ligand concentration 20 (unit not given), replicate column 1 of 3",12132
same,"Fluorescence competitive binding assay, OBP2 (raw fluorescence reading)","[4]; ligand concentration 20 (unit not given), replicate column 2 of 3",10679
same,"Fluorescence competitive binding assay, OBP2 (raw fluorescence reading)","[4]; ligand concentration 20 (unit not given), replicate column 3 of 3",10932
same,IC50,"[5]; SfurOBP11, protein and 1-NPN both 2.0 µM, competitor 2-20 µM, read-out: IC50",> 20 µM
same,"Fluorescence intensity, fluorescence competitive binding assay, OBP11","[5]; ligand concentration 2, replicate 1",29315
same,"Fluorescence intensity, fluorescence competitive binding assay, OBP11","[5]; ligand concentration 2, replicate 2",29331
same,"Fluorescence intensity, fluorescence competitive binding assay, OBP11","[5]; ligand concentration 2, replicate 3",31569
same,"Fluorescence intensity, fluorescence competitive binding assay, OBP11","[5]; ligand concentration 4, replicate 1",28278
same,"Fluorescence intensity, fluorescence competitive binding assay, OBP11","[5]; ligand concentration 4, replicate 2",30015
same,"Fluorescence intensity, fluorescence competitive binding assay, OBP11","[5]; ligand concentration 4, replicate 3",31065
same,"Fluorescence intensity, fluorescence competitive binding assay, OBP11","[5]; ligand concentration 6, replicate 1",29774
same,"Fluorescence intensity, fluorescence competitive binding assay, OBP11","[5]; ligand concentration 6, replicate 2",29054
same,"Fluorescence intensity, fluorescence competitive binding assay, OBP11","[5]; ligand concentration 6, replicate 3",29894
same,"Fluorescence intensity, fluorescence competitive binding assay, OBP11","[5]; ligand concentration 8, replicate 1",27943
same,"Fluorescence intensity, fluorescence competitive binding assay, OBP11","[5]; ligand concentration 8, replicate 2",28064
same,"Fluorescence intensity, fluorescence competitive binding assay, OBP11","[5]; ligand concentration 8, replicate 3",27821
same,"Fluorescence intensity, fluorescence competitive binding assay, OBP11","[5]; ligand concentration 10, replicate 1",27525
same,"Fluorescence intensity, fluorescence competitive binding assay, OBP11","[5]; ligand concentration 10, replicate 2",26078
same,"Fluorescence intensity, fluorescence competitive binding assay, OBP11","[5]; ligand concentration 10, replicate 3",27163
same,"Fluorescence intensity, fluorescence competitive binding assay, OBP11","[5]; ligand concentration 12, replicate 1",24273
same,"Fluorescence intensity, fluorescence competitive binding assay, OBP11","[5]; ligand concentration 12, replicate 2",26556
same,"Fluorescence intensity, fluorescence competitive binding assay, OBP11","[5]; ligand concentration 12, replicate 3",26721
same,"Fluorescence intensity, fluorescence competitive binding assay, OBP11","[5]; ligand concentration 14, replicate 1",22920
same,"Fluorescence intensity, fluorescence competitive binding assay, OBP11","[5]; ligand concentration 14, replicate 2",23793
same,"Fluorescence intensity, fluorescence competitive binding assay, OBP11","[5]; ligand concentration 14, replicate 3",23357
same,"Fluorescence intensity, fluorescence competitive binding assay, OBP11","[5]; ligand concentration 16, replicate 1",19613
same,"Fluorescence intensity, fluorescence competitive binding assay, OBP11","[5]; ligand concentration 16, replicate 2",20535
same,"Fluorescence intensity, fluorescence competitive binding assay, OBP11","[5]; ligand concentration 16, replicate 3",20285
same,"Fluorescence intensity, fluorescence competitive binding assay, OBP11","[5]; ligand concentration 18, replicate 1",26966
same,"Fluorescence intensity, fluorescence competitive binding assay, OBP11","[5]; ligand concentration 18, replicate 2",26281
same,"Fluorescence intensity, fluorescence competitive binding assay, OBP11","[5]; ligand concentration 18, replicate 3",26291
same,"Fluorescence intensity, fluorescence competitive binding assay, OBP11","[5]; ligand concentration 20, replicate 1",26611
same,"Fluorescence intensity, fluorescence competitive binding assay, OBP11","[5]; ligand concentration 20, replicate 2",26798
same,"Fluorescence intensity, fluorescence competitive binding assay, OBP11","[5]; ligand concentration 20, replicate 3",25454
